Assay [1] addresses T1, Muscarinic acetylcholine receptor M1 (Homo sapiens) (UniProt P11229).
T1 sequence (whole entry): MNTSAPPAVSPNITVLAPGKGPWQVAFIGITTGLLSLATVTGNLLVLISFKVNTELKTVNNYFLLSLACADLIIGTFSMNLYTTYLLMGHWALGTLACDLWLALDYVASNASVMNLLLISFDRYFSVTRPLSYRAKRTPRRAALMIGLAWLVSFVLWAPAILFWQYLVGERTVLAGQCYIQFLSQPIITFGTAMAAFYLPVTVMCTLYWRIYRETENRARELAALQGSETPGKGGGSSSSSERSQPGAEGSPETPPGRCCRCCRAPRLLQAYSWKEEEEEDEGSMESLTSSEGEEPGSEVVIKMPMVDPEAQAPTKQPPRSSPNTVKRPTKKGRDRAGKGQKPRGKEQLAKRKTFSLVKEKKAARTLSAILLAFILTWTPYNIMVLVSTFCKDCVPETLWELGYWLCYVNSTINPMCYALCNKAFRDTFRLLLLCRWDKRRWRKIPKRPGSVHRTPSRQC
As to the kind of experiment: Irreversible binding to human M1 mAChR expressed in FlpIn-CHO cell membrane assessed as receptor alkylation incubated for 30 mins prior to [3H]NMS addition measured after 4 hrs by radioligand displacement analysis (reference value: 100%). Type of assay: cell membranes. For orientation: In a radioligand displacement assay an active substance lowers the binding of a labelled ligand.

Assay [2] has as its target T1, Muscarinic acetylcholine receptor M1 (Homo sapiens). As to the kind of experiment: Displacement of [3H]NMS from human M1 mAChR expressed in FlpIn-CHO cells after 4 hrs by microplate counting analysis. Type of assay: cell-based.
For assay [3] the target is unchanged. As to the kind of experiment: Irreversible binding to human M1 mAChR expressed in FlpIn-CHO cells assessed as receptor alkylation incubated for 30 mins prior to [3H]NMS addition measured 4 hrs after compound washout by whole cell radioligand displacement analysis relative to vehicle-treated control. Type of assay: cell-based.
The target of assay [4] is T2, Muscarinic acetylcholine receptor M1 (Homo sapiens, UniProt P11229).
T2 sequence (P11229 whole entry): T1 sequence (whole entry)
As to the kind of experiment: Activation of human M1 mAChR expressed in FlpIn-CHO cells assessed as […] ERK1/2 phosphorylation incubated for 5 mins by Alphascreen assay. Type of assay: cell-based. In general terms: Bead proximity is the source of the signal in Alpha formats.

For orientation: pKb means −log10 of the Kb, conventionally taken in molar units. Low readings indicate a high Kb, high ones a low Kb. Broadly, the EC50 is the concentration giving half of the maximal effect.

Molecules are shown by their SMILES. Activity calls are given as the source filed them. The rule behind the calls is not given here.

As to `O=C(O)c1cn(Cc2ccc(N=C=S)cc2)c2ccccc2c1=O`, the Bmax in assay [1] turned out to be 50%. Also, the pKb in assay [2] was 5.22. The outcome in assay [3] was inactive. The EC50 in assay [4] was 389 nM.
As to `COc1ccc(Cn2cc(C(=O)O)c(=O)c3ccccc32)cc1`, the Bmax in assay [1] turned out to be 90.8%. For the same molecule, the outcome in assay [3] was inactive.
Molecule `O=C(CBr)Nc1ccc(Cn2cc(C(=O)O)c(=O)c3ccccc32)cc1` had a pKb in assay [2] of 4.72. The EC50 in assay [4] is 1580 nM.
The like results for `O=C(O)c1cn(Cc2ccc(N3C(=O)C=CC3=O)cc2)c2ccccc2c1=O` were, in that order, 5.09 and 417 nM.
In turn, `O=C(O)c1cn(Cc2ccc(S(=O)(=O)F)cc2)c2ccccc2c1=O` yielded a pKb in assay [2] of 3.97. For the same molecule, the EC50 in assay [4] was 316 nM.

The values above are taken from ChEMBL document CHEMBL3286117, “Synthesis and pharmacological evaluation of analogues of benzyl quinolone carboxylic acid (BQCA) designed to bind irreversibly to an allosteric site of the M ₁ muscarinic acetylcholine receptor” (J Med Chem, 2014).
